In brackets after ≈: the same amount, converted by molar mass. Like-named read-outs stand apart in the source and are kept apart here.
Tests used:
[1] = test system: genotype 1a H-77 replicon; test: HCV-1a replicon potency in RLuc-1 cells, bioluminescence; assay type: cell-based; settings: for HCV-1a Replicon Selectivity Index: CC50/EC50, genotype 1a replicon; for EC50: Hepatitis C virus, 72 h, read-out: HCV-1a Replicon EC50 (μM)
poliovirus (PV type 1) = test: microbe, parasite or virus in culture; assay type: cell-based; settings: Enterovirus C, read-out: PV-1 EC50
poliovirus (PV type 2) = test: microbe, parasite or virus in culture; assay type: cell-based; settings: Enterovirus C, read-out: PV-2 EC50
[2] = Cytotoxicity in HCV-1a replicon cells, Promega CellTiter-Glo cell viability assay
in vitro [3] = settings: human, PV CC50
poliovirus (PV type 3) = test: microbe, parasite or virus in culture; assay type: cell-based; settings: Enterovirus C, read-out: PV-3 EC50
in vitro [4] = settings: African green monkey, PV CC50
HIV-1 strain IIIB = test: Inhibition of replication of HIV-1 (IIIB strain) in MT-4 cells, MTT assay; assay type: cell-based; settings: Human immunodeficiency virus 1, IIIB, MT4, 120 h; MT-4 cells, MTT assay, five days after infection, 50% protection from cytopathic effect; read-out: EC50 (μM) HIV-1 (IIIB)
in vitro [5] = settings: human
HIV-2 strain (ROD) = test: Inhibition of replication of HIV-2 (ROD strain) in MT-4 cells, MTT assay; assay type: cell-based; settings: Human immunodeficiency virus 2, MT4, 120 h; MT-4 cells, MTT assay, five days after infection, 50% protection from cytopathic effect; read-out: EC50 (μM) HIV-2 (ROD)
hRV-29 = test: Rhinovirus type 29 antiviral assay in Hela Rh cells, MTS readout; assay type: cell-based; settings: Human rhinovirus sp., HRV29, HeLa Rh, Hela Rh cells; read-out: hRV-29 EC50
hRV-86 = test: Rhinovirus type 86 antiviral assay in Hela Rh cells, MTS readout; assay type: cell-based, Human rhinovirus; settings: Human rhinovirus sp., HRV86, HeLa Rh, Hela Rh cells; read-out: hRV-86 EC50
hRV-63 = test: Rhinovirus type 63 antiviral assay in Hela Rh cells, MTS readout; assay type: cell-based, Human rhinovirus; settings: Human rhinovirus sp., HRV63, HeLa Rh, Hela Rh cells; read-out: hRV-63 EC50
hRV-70 = test: Rhinovirus type 70 antiviral assay in Hela Rh cells, MTS readout; assay type: cell-based, Human rhinovirus; settings: Human rhinovirus sp., HRV70, HeLa Rh, Hela Rh cells; read-out: hRV-70 EC50
hRV-72 = test: Rhinovirus type 72 antiviral assay in Hela Rh cells, MTS readout; assay type: cell-based, Human rhinovirus; settings: Human rhinovirus sp., HRV72, HeLa Rh, Hela Rh cells; read-out: hRV-72 EC50
hRV-14 = test: Rhinovirus type 14 antiviral assay in Hela Rh cells, MTS readout; assay type: cell-based, Human rhinovirus; settings: Rhinovirus B, HRV14, HeLa Rh, Hela Rh cells; read-out: hRV-14 EC50
hRV-85 = test: Rhinovirus type 85 antiviral assay in Hela Rh cells, MTS readout; assay type: cell-based, Human rhinovirus; settings: Human rhinovirus sp., HRV85, HeLa Rh, Hela Rh cells; read-out: hRV-85 EC50
[6] = Cytostatic/cytotoxic effect in Hela Rh cells (rhinovirus methodology, MTS); settings: human, CC50, Hela Rh cells
hRV-9 = test: Rhinovirus type 9 antiviral assay in Hela Rh cells, MTS readout; assay type: cell-based, Human rhinovirus; settings: Human rhinovirus sp., HRV9, HeLa Rh, Hela Rh cells; read-out: hRV-9 EC50
hRV-42 = test: Rhinovirus type 42 antiviral assay in Hela Rh cells, MTS readout; assay type: cell-based, Human rhinovirus; settings: Human rhinovirus sp., HRV42, HeLa Rh, Hela Rh cells; read-out: hRV-42 EC50
hRV-39 = test: Rhinovirus type 39 antiviral assay in Hela Rh cells, MTS readout; assay type: cell-based, Human rhinovirus; settings: Human rhinovirus sp., HRV39, HeLa Rh, Hela Rh cells; read-out: hRV-39 EC50
hRV-45 = test: Rhinovirus type 45 antiviral assay in Hela Rh cells, MTS readout; assay type: cell-based, Human rhinovirus; settings: Human rhinovirus sp., HRV45, HeLa Rh, Hela Rh cells; read-out: hRV-45 EC50
hRV-41 = test: Rhinovirus type 41 antiviral assay in Hela Rh cells, MTS readout; assay type: cell-based, Human rhinovirus; settings: Human rhinovirus sp., HRV41, HeLa Rh, Hela Rh cells; read-out: hRV-41 EC50
hRV-15 = test: Rhinovirus type 15 antiviral assay in Hela Rh cells, MTS readout; assay type: cell-based, Human rhinovirus; settings: Human rhinovirus sp., HRV15, HeLa Rh, Hela Rh cells; read-out: hRV-15 EC50

Compound | EC50 [1] [µM] | EC50 (poliovirus (PV type 1); HeLa) [µg/mL] | EC50 (poliovirus (PV type 1); Vero) [µg/mL] | EC50 (poliovirus (PV type 2); HeLa) [µg/mL] | EC50 (poliovirus (PV type 2); Vero) [µg/mL] | CC50 at 72 h [2] [µM] | CC50 (in vitro [3]) [µg/mL] | EC50 (poliovirus (PV type 3); HeLa) [µg/mL] | EC50 (poliovirus (PV type 3); Vero) [µg/mL] | CC50 (in vitro [4]) [µg/mL] | EC50 (HIV-1 strain IIIB) [µM] | CC50 (in vitro [5]) [µM] | EC50 (HIV-2 strain (ROD)) [µM] | CC50 [6] [µg/mL] | also measured
Nc1nc(N2CCN(C(=O)COc3ccc(Cl)cc3)CC2)c2nc(C3CCCCC3)oc2n1 [Example 187, 5-amino-2-cyclohexyl-7-[4-(4-chlorophenoxyacetyl)piperazin-1-yl]oxazolo[5,4-d]pyrimidine] | 19 | > 50 | > 50 | > 50 | ≥ 50 | 24.3 | > 50 | > 50 | > 50 | 118 (≈ 250 µM) |  |  |  |  | HCV-1a Replicon Selectivity Index [1]: 1.3
Nc1nc(N2CCN(C(=O)COc3ccc(Cl)cc3)CC2)c2nc(CCc3ccc(F)cc3)sc2n1 [Example 49, 1-(4-(5-amino-2-(4-fluorophenethyl)-thiazolo[5,4-d]pyrimidin-7-yl)piperazin-1-yl)-2-(4-chlorophenoxy)ethanone] | 42.1 | 0.13 (≈ 0.247 µM) | 0.13 (≈ 0.247 µM) | 0.13 (≈ 0.247 µM) | 0.21 (≈ 0.398 µM) | > 44.4 | > 50 | > 50 | 1.17 (≈ 2.22 µM) | 101 (≈ 192 µM) | 1.13 | > 50 | > 7.06 |  | HCV-1a Replicon Selectivity Index [1]: >1.1
COc1ccc(OCC(=O)N2CCN(c3nc(N)nc4sc(Cc5ccc(F)cc5)nc34)CC2)cc1 [Example 230, 1-(4-(5-amino-2-(4-fluorobenzyl)thiazolo[5,4-d]pyrimidin-7-yl)piperazin-1-yl)-2-(4-methoxyphenoxy)ethanone] |  |  |  |  |  |  |  |  |  |  |  |  |  | > 50 | EC50 (hRV-29): 0.04 µg/mL (≈ 0.0787 µM); EC50 (hRV-86): 2.36 µg/mL (≈ 4.64 µM); EC50 (hRV-63): 0.54 µg/mL (≈ 1.06 µM); EC50 (hRV-70): 2.37 µg/mL (≈ 4.66 µM); EC50 (hRV-72): 8.55 µg/mL (≈ 16.8 µM); EC50 (hRV-14): 0.39 µg/mL (≈ 0.767 µM); EC50 (hRV-85): 0.61 µg/mL (≈ 1.2 µM); EC50 (hRV-9): 0.09 µg/mL (≈ 0.177 µM); EC50 (hRV-42): < 0.39 µg/mL; EC50 (hRV-39): 0.04 µg/mL (≈ 0.0787 µM); EC50 (hRV-45): 1.13 µg/mL (≈ 2.22 µM); EC50 (hRV-41): 0.58 µg/mL (≈ 1.14 µM); EC50 (hRV-15): 0.38 µg/mL (≈ 0.747 µM)
CCCCCc1nc2c(N3CCN(C(=O)COc4ccc(Cl)cc4)CC3)nc(N)nc2s1 [Example 297, 1-(4-(5-amino-2-pentylthiazolo[5,4-d]pyrimidin-7-yl)piperazin-1-yl)-2-(4-chlorophenoxy)ethanone] |  |  |  |  |  |  |  |  |  |  |  |  |  | > 50 | EC50 (hRV-29): 0.13 µg/mL (≈ 0.274 µM); EC50 (hRV-86): 2.42 µg/mL (≈ 5.09 µM); EC50 (hRV-63): 0.53 µg/mL (≈ 1.12 µM); EC50 (hRV-70): 4.31 µg/mL (≈ 9.07 µM); EC50 (hRV-72): 2.46 µg/mL (≈ 5.18 µM); EC50 (hRV-14): 0.4 µg/mL (≈ 0.842 µM); EC50 (hRV-85): 1.01 µg/mL (≈ 2.13 µM); EC50 (hRV-9): 0.14 µg/mL (≈ 0.295 µM); EC50 (hRV-42): 4.45 µg/mL (≈ 9.37 µM); EC50 (hRV-39): 0.08 µg/mL (≈ 0.168 µM); EC50 (hRV-45): 2.29 µg/mL (≈ 4.82 µM); EC50 (hRV-41): 1.06 µg/mL (≈ 2.23 µM); EC50 (hRV-15): 0.38 µg/mL (≈ 0.8 µM)
Cc1ccc(-c2nc3c(N4CCN(C(=O)COc5ccc(Cl)cc5)CC4)nc(N)nc3s2)cc1 [Example 295, 1-(4-(5-amino-2-p-tolylthiazolo[5,4-d]pyrimidin-7-yl)piperazin-1-yl)-2-(4-chlorophenoxy)ethanone] |  |  |  |  |  |  |  |  |  |  |  |  |  | > 50 | 
Cc1ccc(CCc2nc3c(N4CCN(C(=O)COc5ccc(Cl)cc5)CC4)nc(N)nc3s2)cc1 [Example 260, 1-(4-(5-amino-2-(4-methylphenethyl)thiazolo[5,4-d]pyrimidin-7-yl)piperazin-1-yl)-2-(4-chlorophenoxy)ethanone] |  |  |  |  |  |  |  |  |  |  |  |  |  | > 50 | EC50 (hRV-29): > 50 µg/mL; EC50 (hRV-86): > 50 µg/mL; EC50 (hRV-63): 27.9 µg/mL (≈ 53.3 µM); EC50 (hRV-70): > 50 µg/mL; EC50 (hRV-72): > 50 µg/mL; EC50 (hRV-14): > 50 µg/mL; EC50 (hRV-85): 1.35 µg/mL (≈ 2.58 µM); EC50 (hRV-9): > 50 µg/mL; EC50 (hRV-42): > 50 µg/mL; EC50 (hRV-39): 13 µg/mL (≈ 24.8 µM); EC50 (hRV-45): 2.46 µg/mL (≈ 4.7 µM); EC50 (hRV-41): > 50 µg/mL; EC50 (hRV-15): > 50 µg/mL
Nc1nc(N2CCN(C(=O)COc3ccc(Cl)cc3)CC2)c2nc(-c3ccc(F)cc3)[nH]c2n1 [Example 389, 1-(4-(2-amino-8-(4-fluorophenyl)-9H-purin-6-yl)piperazin-1-yl)-2-(4-chlorophenoxy)ethanone] | > 44.4 | > 16.7 | > 50 | 16.7 (≈ 34.6 µM) | ≥ 50 | > 44.4 | > 50 | 37.6 (≈ 78 µM) | > 50 | > 150 |  |  |  |  | 
Nc1nc(N2CCN(C(=O)COc3ccc(Cl)cc3)CC2)c2nc(CCc3ccccc3)oc2n1 [Example 189, 5-amino-2-(2-phenylethyl)-7-[4-(4-chlorophenoxyacetyl)piperazin-1-yl]oxazolo[5,4-d]pyrimidine] | 20.6 | 1.14 (≈ 2.31 µM) | 0.86 (≈ 1.74 µM) | 1.15 (≈ 2.33 µM) | 0.4 (≈ 0.811 µM) | 40.5 | > 50 | > 50 | 1.19 (≈ 2.41 µM) | > 150 |  |  |  |  | HCV-1a Replicon Selectivity Index [1]: 2.0
COCc1nc2c(N3CCN(C(=O)COc4ccc(Cl)cc4)CC3)nc(N)nc2o1 [Example 186, 5-amino-7-[4-(4-chlorophenoxyacetyl)piperazin-1-yl]-2-methoxylmethyloxazolo[5,4-d]pyrimidine] | > 44.4 | 3.16 (≈ 7.3 µM) | 1.07 (≈ 2.47 µM) | 9.42 (≈ 21.8 µM) | 2.96 (≈ 6.84 µM) | > 44.4 | > 50 | 3.21 (≈ 7.42 µM) | 10.7 (≈ 24.7 µM) | 95.2 (≈ 220 µM) |  |  |  |  | 
Nc1nc(N2CCN(C(=O)COc3ccc(F)cc3)CC2)c2nc(CCc3ccc(F)cc3)sc2n1 [Example 51, 1-(4-(5-amino-2-(4-fluorophenethyl)thiazolo[5,4-d]pyrimidin-7-yl)piperazin-1-yl)-2-(4-fluorophenoxy)ethanone] |  | 0.13 (≈ 0.255 µM) | 0.12 (≈ 0.235 µM) | 0.23 (≈ 0.45 µM) | 0.13 (≈ 0.255 µM) |  | > 50 | 20.2 (≈ 39.5 µM) | 2.68 (≈ 5.25 µM) | 50 (≈ 97.9 µM) | 4.9 | 210 | > 210 |  | 
Cc1cccc(NC(=O)N2CCN(c3nc(-c4ccccc4)nc4sc(-c5ccc(F)cc5)cc34)CC2)c1 [Example 360, 4-(6-(4-fluorophenyl)-2-phenylthieno[2,3-d]pyrimidin-4-yl)-N-m-tolylpiperazine-1-carboxamide] |  | > 50 | > 50 | ≥ 50 | 10.5 (≈ 20.1 µM) |  | > 50 | > 50 | > 50 | 93.4 (≈ 178 µM) | > 239 | > 239 | > 239 |  | 
CC(c1ccc(F)cc1)c1nc2c(N3CCN(C(=O)COc4ccc(Cl)cc4)CC3)nc(N)nc2s1 (centres unmarked) [Example 66, 1-(4-(5-amino-2-(1-(4-fluorophenyl)ethyl)thiazolo[5,4-d]pyrimidin-7-yl)piperazin-1-yl)-2-(4-chlorophenoxy)ethanone] |  | > 50 | 0.29 (≈ 0.55 µM) | ≥ 50 | 0.11 (≈ 0.209 µM) |  | > 50 | > 50 | 0.56 (≈ 1.06 µM) | 130 (≈ 246 µM) | > 50 | > 50 | > 50 |  | 
O=C(COc1ccc(Cl)cc1)N1CCN(c2nc(-c3ccccc3)nc3sc(-c4ccc(F)cc4)cc23)CC1 [Example 352, 2-(4-chlorophenoxy)-1-(4-(6-(4-fluorophenyl)-2-phenylthieno[2,3-d]pyrimidin-4-yl)piperazin-1-yl)ethanone] |  | > 50 | > 50 | ≥ 50 | > 50 |  | > 50 | > 50 | > 50 | > 150 | > 224 | > 224 | > 224 |  | 
